Results published in article PMC12677652, “Procyanidin B3 and Its Derivatives Alleviate Neuronal Injury by Targeting G3BP1 for Ischemic Stroke Therapy” (Advanced Science, 2025).
Where two headings read alike, the source gives them in different places.

Legend:
[1] = test system: SG in HT22 cells; test: Immunofluorescence staining of G3BP1 to detect SG level in HT22 cells under OGD/R; format: cell-based; conditions: for ratio of SG‐positive cells: 100 µM; for SG levels: after 6 h of OGD, 24 h treatment
Protocol: Immunofluorescence analysis of the stress granule (SG) core component G3BP1 was utilized to investigate the SG formation in HT22 cells and the cortex. HT22 cells were treated with 4% paraformaldehyde for 15 min. Then the fixed brain tissue slices and HT22 cells were permeabilized for 5 min using 1% Triton X‐100 (Sigma‐Aldrich, USA) dissolved in PBS and blocked with a PBS solution containing 10% goat serum for 1 h, followed by incubation with anti‐G3BP1 antibody (catalog no. 66486‐1‐Ig, Proteintech, China) at 4 °C overnight. After being washed with PBS 3 times for 5 min each, samples were incubated with secondary antibody (Alexa Fluor 568 Goat anti‐mouse IgG, Invitrogen, USA) in the dark for 2 h at room temperature. The nucleus was stained with DAPI. Fluorescent pictures were obtained with a fluorescence microscope (Carl Zeiss, Germany).

[2] = Pharmacokinetic study in mice, i.p. injection; format: in vivo; conditions: C57BL/6, mouse, ip, 48 mg kg^−1 i.p., plasma, mean ± S.D., n = 3
Protocol: Pharmacokinetic analyses were performed using a LC‐40D XS HPLC system (Shimadzu, Japan) coupled with a Sciex Triple Quad 5500 mass spectrometer (AB SCIEX, USA). Tested compounds PB3 and 6c were administered by i.p. injection (48 mg kg^−1, formulation solvent: normal saline). Blood samples were drawn from the retro‐orbital vein at 0.083, 0.25, 0.5, 1, 2, 4, 8, and 24 h post‐injection with EDTA dipotassium salt as an anticoagulant. Subsequently, the plasma fractions were collected in Eppendorf tubes and centrifuged at 4000 g for 5 min at 4 °C and stored at −80 °C for analysis. Brain tissue was mixed with four‐fold normal saline for homogenization (10 s per time with a 10 s interval for 3–5 times). Then, the mixture was centrifuged at 4000 g for 5 min at 4 °C, and the supernatant was stored at −80 °C for analysis. For sample preparation, the desired serial concentrations of working solutions were achieved by diluting a stock solution of analyte with 50% methanol in water solution. 2 µL of working solutions were added to 10 µL of the blank C57BL/6 mouse plasma/brain homogenate to achieve calibration standards of 10–10 000 ng mL^−1 (10, 20, 100, 200, 1000, 2000, 4000, 10 000 ng mL^−1) in a total volume of 12 µL. Three quality control samples at 20 ng mL^−1, 1600 ng mL^−1, and 8000 ng mL^−1 for plasma were prepared independently of those used for the calibration curves. These QC samples were prepared on the day of analysis in the same way as calibration standards.

[3] = test system: Primary rat cortical neurons; test: Cytotoxicity (50% cytotoxic concentration) by CCK-8 assay; format: cell-based; conditions: 24 h exposure
Protocol: Additionally, we investigated the effects of PB3, 6c, and EDA on apoptosis at a concentration of 50 µM. […] Therefore, the improvement in target accessibility could be one of the main reasons for the enhanced activity of 6c. The binding mode of 6c and the NTF2L domain of G3BP1 was analyzed by molecular docking (Figure S10B, Supporting Information). […] Cytotoxicities of 1 and 6c were determined by the detection of 50% cytotoxic concentration using the CCK‐8 assay. Primary rat cortical neurons ^[ [10] ^] were exposed to 200 µM gradient concentrations of compounds for 24 h.

[4] = Brain and plasma concentrations after MCAO/reperfusion (BBB assessment); format: in vivo, mice; conditions: C57BL/6, mouse, ip, 0.5 h after administration, 48 mg kg^−1 i.p., after 1.5 h of MCAO followed by reperfusion; for Kp at 0.5 h: brain / plasma, read-out: CBrain/Cplasma
Protocol: After 1.5 h of MCAO followed by reperfusion, each of 1 and 6c was administered at a dose of 48 mg kg^−1 intraperitoneally to mice, and the brain and plasma concentrations of each compound were measured at 0.5 h after administration. The ratios of brain to plasma concentrations of 1 and 6c were 0.37 and 0.57, respectively, confirming that the BBB permeability of compounds benefited from higher lipophilicity (Table 2 ). The decrease in 6c concentration in vivo may be due to changes in metabolic routes. Tertiary carbon atoms and terminal carbon atoms are easily metabolized through oxidative pathways,^[ [55] ^] so the introduction of isopropyl groups leads to the production of more metabolites, resulting in a decrease in the area under curve (AUC). The metabolites of oligomeric proanthocyanidins and their analogues are quite complex. Although there are a large number of metabolites, most of them have a flavan‐3‐ol core structure and contain many phenolic hydroxyl groups.^[ [56] ^] As mentioned above, phenolic hydroxyl groups are important active functional groups to exert neuroprotective effects, so it can be inferred that metabolites of 6c also have similar activity to 6c. In future work, radiolabeled pharmacokinetic studies and metabolite studies are needed to further elucidate the metabolism of the preferred compound.^[ [57] ^] Pharmacokinetic analyses were performed using a LC‐40D XS HPLC system (Shimadzu, Japan) coupled with a Sciex Triple Quad 5500 mass spectrometer (AB SCIEX, USA). Tested compounds PB3 and 6c were administered by i.p. injection (48 mg kg^−1, formulation solvent: normal saline). Blood samples were drawn from the retro‐orbital vein at 0.083, 0.25, 0.5, 1, 2, 4, 8, and 24 h post‐injection with EDTA dipotassium salt as an anticoagulant. Subsequently, the plasma fractions were collected in Eppendorf tubes and centrifuged at 4000 g for 5 min at 4 °C and stored at −80 °C for analysis. Brain tissue was mixed with four‐fold normal saline for homogenization (10 s per time with a 10 s interval for 3–5 times). Then, the mixture was centrifuged at 4000 g for 5 min at 4 °C, and the supernatant was stored at −80 °C for analysis. For sample preparation, the desired serial concentrations of working solutions were achieved by diluting a stock solution of analyte with 50% methanol in water solution. 2 µL of working solutions were added to 10 µL of the blank C57BL/6 mouse plasma/brain homogenate to achieve calibration standards of 10–10 000 ng mL^−1 (10, 20, 100, 200, 1000, 2000, 4000, 10 000 ng mL^−1) in a total volume of 12 µL. Three quality control samples at 20 ng mL^−1, 1600 ng mL^−1, and 8000 ng mL^−1 for plasma were prepared independently of those used for the calibration curves. These QC samples were prepared on the day of analysis in the same way as calibration standards.

Oc1cc(O)c2c(c1)O[C@H](c1ccc(O)c(O)c1)[C@@H](O)[C@@H]2c1c(O)cc(O)c2c1O[C@H](c1ccc(O)c(O)c1)[C@@H](O)C2 [Compound 1, procyanidin B3]
ratio of SG‐positive cells ([1]; 1 h after administration): did not change significantly
ratio of SG‐positive cells ([1]; after 24 h of reoxygenation): significantly increased
SG levels [1]: enhance SG levels in a dose‐dependent manner
AUC(0-inf) [2]: 22300 ± 1970 ng·h/mL
AUC(0-t) [2]: 22200 ± 1940 ng·h/mL
Cmax [2]: 30400 ± 1790 ng/mL
MRT inf [2]: 1.42 ± 0.06 h
half-life [2]: 4.43 ± 0.34 h
50% cytotoxic concentration [3]: over 200 µM
Kp at 0.5 h [4]: 0.37
concentration at 0.5 h ([4]; brain, read-out: CBrain): 4790 ± 1610 ng/g
concentration at 0.5 h ([4]; plasma, read-out: Cplasma): 13000 ± 757 ng/mL

CC(C)c1c(O)cc(O)c2c1O[C@H](c1ccc(O)c(O)c1)[C@@H](O)[C@@H]2c1c(O)cc(O)c2c1O[C@H](c1ccc(O)c(O)c1)[C@@H](O)C2 [Compound 6c, 8‐Isopropyl‐(+)‐Catechin‐(4α,8)‐(+)‐Catechin]
SG levels [1]: mediate SG upregulation
AUC(0-inf) [2]: 10400 ± 1280 ng·h/mL
AUC(0-t) [2]: 10200 ± 1250 ng·h/mL
Cmax [2]: 25200 ± 2500 ng/mL
MRT inf [2]: 0.76 ± 0.03 h
half-life [2]: 2.01 ± 0.26 h
50% cytotoxic concentration [3]: over 200 µM
Kp at 0.5 h [4]: 0.57
concentration at 0.5 h ([4]; brain, read-out: CBrain): 2810 ± 489 ng/g
concentration at 0.5 h ([4]; plasma, read-out: Cplasma): 4960 ± 1590 ng/mL
